Test [1] has as its system EcoRI and Taq1 digested SV40 DNA. Nature of the test: DNA crosslinking, EcoRI/Taq I digested SV40 DNA, alkaline agarose gel. The class given is binding. The conditions noted are these: 0.5 and 1 μM, 37° C., 17 hours. The procedure: Isolated SV40 DNA (Gibco BRL) was digested with EcoRI (3 units/μg DNA) (Promega #R6011) at 37° C. for two hours, and concentrated through a spin column (Microcon 50, Amicon, Inc.). The EcoRI digested SV40 DNA was then digested with Taq I (3 units/μg DNA) (Promega #6151) at 65° C. for an additional 2 hours. After digestion, DNA was extracted once with phenol/chloroform/isoamyl alcohol (25:24:1), and once with chloroform/isoamyl alcohol (24:1). The digested DNA was then labelled on the 5' end with ^32 P using the DuPont/NEN T4 polynucleotide kinase 5' end labelling system and […]. Labelled DNA was loaded onto a pre-equilibrated Sephadex 25 spin purification column (Quick-spin, Boehringer-Mannheim Biochemicals) and eluted into 400 μl TE (20 mM Tris HCl, 1 mM EDTA). Eluted DNA was ethanol precipitated overnight at -20° C. and spun in an Eppendorf microcentrifuge for 1 hour at 4° C., 14,000 rpm.
Precipitated DNA was suspended in TE (20 mM Tris HCl, pH 8, 1 mM EDTA) at approximately 0.1 μg/μl and incubated at 37° C. for 17 hours in a 50 μl volume with 0, 0.5, 1.0, 1.5 or 2 μM compound 21. Following drug treatment, DNA was again ethanol precipitated, spun down, dried briefly and suspended in 20 μl water. […]

Test [2] deals with MCF-7 Human Breast Carcinoma cell line. In words: In vitro growth inhibition (MTT), MCF-7 breast carcinoma. It is filed as cell-based. The conditions noted are these: 6 days. An excerpt: (§1) P388 murine leukemic cell line was obtained from the DCT Tumor Repository (National Cancer Institute, Frederick Cancer Research and Development, Frederick Md. 21702). HT29 Human Colon Carcinoma cell line was obtained from the American Type Culture Collection (12301 Parklawn Drive, Rockville, Md. 20852). B16 Melanoma cell line was obtained from DuPont Merck Pharmaceutical Company (Glenolden, Pa. 19036). MCF-7 Human Breast Carcinoma cell line was a gift from Dr. K. Osborne (Department of Medicine, The University of Texas Health Science Center at San Antonio, San Antonio, Tex. 78284). All cell lines were incubated at 37° C. in a humidified atmosphere of 5% CO2 -95% air. Murine B16 melanoma cell line was grown in RPMI 1640 medium supplemented with 10% heat-inactivated fetal bovine serum, 2 mM L-glutamine, 50 units/ml penicillin, 50 μg/ml streptomycin, 25 μg/ml gentamycin, 0.75% sodium bicarbonate, 10 mM HEPES buffer (pH 7.4), and 0.06 mg/ml AntiPPLO. Murine P388 leukemic and the human HT-29 colon adenocarcinoma cell lines were maintained in RPMI 1640 medium supplemented with 10% heat-inactivated fetal bovine serum. MCF-7M human breast adenocarcinoma was maintained in IMEM medium supplemented with 5% non heat-inactivated fetal bovine serum and 1 nM insulin.
(§2) Exponentially growing cells (1-2×10^3 cells, unless specified otherwise) in 0.1 ml medium were seeded on day 0 in a 96-well microtiter plate. On day 1, 0.1 ml aliquots of medium containing graded concentrations of test compounds were added in duplicate to the cell plates. After incubation at 37° C. in a humidified incubator for 3 days (P388, B16) or 6 days (HT-29, MCF-7M), the plates were centrifuged briefly and 100 μl of the growth medium was removed. Cell cultures were incubated with 50 μl of 3-(4,5-dimethylthiazol-2-yl)-2,5-diphenyl-tetrazolium bromide [MTT, 1 mg/ml in Dulbecco's phosphate buffered saline (PBS)] for 4 hr at 37° C. The resulting purple formazan precipitate was solubilized with 200 μl of 0.04N HCl in isopropyl alcohol. Absorbance was monitored in a BioRad Model 3550 Microplate Reader at a test wavelength of 570 nm and a reference wavelength of 630 nm. The absorbance was transferred to a PC 486 computer. The IC50 values were determined by a computer program (EZ-ED50) that fit all of the data to the following four-parameterlogistic equation:
(§3) Y=((Am -Ao)/(1+(X/IC50)^n))+Ao
(§4) where Am is the absorbance of control cells, Ao is the absorbance of cells in the presence of highest agent concentration, Y is the observed absorbance, X is the agent concentration, IC50 is the concentration of agent that inhibits the cell growth by 50% of control cells (based on the absorbance) and n is the slope of the curve.

The subject of test [3] is P388 murine leukemic cell line. In words: In vitro growth inhibition (MTT), P388 leukemia. The class given is cell-based. The conditions noted are these: 3 days.
Text: as §1, §2, §3, §4

“Also recorded” adds a separate entry of the source.

One may read the IC50 as the concentration that gives 50% inhibition. High values mean weaker potency, low ones greater potency. As for “8-(3'-nitro-1',8'-naphthalimide)-3,6-diazaoctylamine dichloroplatinum(II) [Compound 21]”, the “formation of DNA cross links (in words)” value in test [1] is “formation of higher molecular weight DNA, around 4.6 and 5.8 Kb; also recorded: cross-linked DNA of 4.6-5.8 Kb”. Moreover, the IC50 in test [2] amounted to 0.066 µM; in test [3] it was 0.302 µM.

The values are drawn from US5561042A, “Diamine platinum naphthalimide complexes as antitumor agents” (Cancer Therapy and Research Center, priority 1995, dated 1996).
